Assay [1] concerns HCT-116 cells. Description: Calcein AM viability assay, HCT-116. It is filed as cell-based. The following applies: Homo sapiens. On the procedure: The potency of Cdk inhibitors, as measured by loss of cellular viability, was determined with the Calcein AM assay (Molecular Probes). Calcein AM is a substrate of intracellular esterases, which is cleaved only in viable cells to generate a fluorescent product that can be quantified with a fluorescent plate reader. The fluorescent signal is proportional to the number of viable cells, and thus loss of signal in response to the exposure of cells to Cdk inhibitors correlates with a loss of viability. This assay can distinguish cell cycle arrest, in which cells may still by viable, from loss of viability and is thus well suited for the evaluation of Cdk inhibitors. A compound that is a potent cytotoxic, may cause significant loss of cell viability in such assay.
Cellular IC50's were determined in the human colorectal carcinoma cell line, HCT-116, and the normal human fibroblast, IMR90. Protein adjusted IC50's were also determined in HCT-116.
HCT-116 or IMR90 cells were recovered from sub-confluent plates by trypsinization and 1,000 or 4,000 cells, respectively, were plated in 24-well dishes and incubated overnight at 37° C., 5% CO2. HCT-116 cells were cultured in RPMI-1640, 10% FCS, and IMR90 cells were cultured in Minimum Essential Medium-alpha, 10% FCS. After overnight incubation to allow adherence, the media was aspirated from each well and replaced with media containing a test compound at a concentration from 0 to 250 nM, spanning a total of 7 doses. The plates were returned to the incubator and cultured for an additional 72 hours (3 days). […] After 72-hours incubation with the test compound, the cells were washed twice with 1×PBS, taking special care to remove all residual buffer.
A 5 μM Calcein AM solution was prepared by dissolving a […] aliquot of Calcein (Molecular Probes catalog # C3100) in 50 μl DMSO. After the Calcein had completely dissolved (10 minutes at room temperature), it was diluted into 10 ml PBS. Calcein/PBS (0.5 ml) was added to each well. The plates were incubated for 75 minutes at 37° C. (protected from light) and the fluorescent signal was read on a fluorescent plate reader (excitation 485/20 and emission 530/25).

In a further assay the target is T1, Cdk2/cyclin E (Homo sapiens, UniProt P24941).
T1 construct: made in house; host or cells: Sf9 insect cells
In words: Biochemical kinase assay Cdk2/cyclin E. As to conditions: Table 6. An outline of the steps:
(§1)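 Sf9-expressed Cdk/cyclin heterodimers phosphorylate GST-Rb (residues 379–928, 40 μg) with 50 μM ATP plus [γ-33P]ATP, pH 7.5, 10% DMSO, 15 min at 30 °C. Compounds 1 nM–10 μM. 33P captured on glutathione-sepharose and scintillation-counted; activity relative to DMSO control after EDTA-background subtraction.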

A further assay concerns the target T2, Cdk4/cyclin D1 (Homo sapiens, UniProt P11802).
T2 construct: made in house; host or cells: Sf9 insect cells
In words: Biochemical kinase assay Cdk4/cyclin D1. The following applies: Table 6. The method in brief:
as §1

In another assay the target is T3, Cdc2/cyclin B (Homo sapiens, UniProt P06493).
T3 construct: purchased
Description: Biochemical kinase assay Cdc2/cyclin B. The following applies: Table 6. The method in brief:
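Radiometric TCA-precipitation assay measuring [γ-32P]ATP incorporation into Histone H1 (20 μg); 50 μM ATP, 10% DMSO, Tris pH 7.5 with MgCl2 and DTT. Compounds at 1 nM to 10 μM; reaction 20 min at 30 °C, stopped with EDTA/ATP. Activity relative to DMSO control after subtracting 50 mM EDTA background.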

The subject of assay [2] is HCT-116 cells. In words: BrdU incorporation assay. It is filed as cell-based. As to conditions: Homo sapiens, read-out: Brd U, concentration that inhibits BrdU incorporation by 50%. On the procedure: This method measured the percentage of cells that incorporated the nucleotide analog, BrdU, into newly synthesized DNA as cells progressed through the S phase of the cell cycle. The inhibition of BrdU incorporation was used as a measure of a Cdk inhibitor's effect on S phase progression and DNA replication.
3 sets of HCT-116 cells (100,000 cells/set) were plated in T25 flasks and incubated with a test compound as above. Analysis was done at 24, 48, and 72 hours. BrdU was added to each T-25 flask from a stock of 10 mg/ml to a final concentration of 10 μM and the cells were incubated for an additional 16-18 hours at 37° C. The cells were then prepared for flow cytometric analysis according to manufacturer's protocol (BrdU Flow kit, BD-Pharmingen catalogue #2354KK) as follows:
Cells were harvested (adherent and floating) from the T25 flasks directly into Falcon 12×75 flow cytometric tubes as above followed by fixation and permeabilization with the addition of 100 μl of Cytofix/Cytoperm buffer (30 minutes, room temperature). The cells were then washed with 1 ml of Perm Wash buffer and the cell pellets were resuspended in 100 μl Cytoperm Plus buffer and incubated on ice for 10 minutes. The cells were then washed again with 1 ml of Perm Wash buffer and the fixation was repeated in 100 μl of Cytofix/Cyto Perm buffer for 10 minutes at room temperature. The cells were then washed with 1 ml of Perm Wash buffer. The cells were next treated for one hour at 37° C. with 100 μl DNase to expose incorporated BrdU followed by another wash step with 1 ml of Perm Wash buffer. […] Cells were protected from light and incubated at room temperature for 20-30 minutes. Following the incubation, the cells were washed with 1 ml of Perm Wash buffer, resuspended in 300 μl of 2% FBS in PBS, and analyzed on the flow cytometer. Results are presented in Table 2 as the concentration of compound (μM) that inhibits of BrdU incorporation by 50%.
On the technique in general: Uptake of a labelled nucleoside into DNA is a usual measure of proliferation.

For the next assay, the system named is arrested HCT-116 cells. Description: Arrested cell assay, arrested HCT-116 tumor cells. It is filed as cell-based. The following applies: Homo sapiens, serum-starved arrested cells, 72 hours, read-out: Arrested cell assay HCT IC50. On the procedure: (§2) Cyclin-dependent kinase (Cdk) activity is required to promote the progression of cells through distinct phases of the cell division cycle. The proliferation of normal, non-transformed, cells in culture requires the presence of growth factors, the removal of which, through serum deprivation, leads to a loss of Cdk activity and consequent exit from the cell cycle as cells enter the quiescent phase, G0.
HCT-116 cells were plated in triplicate for each compound concentration to be tested in RPMI 1640 media containing 10% fetal calf serum at a density of either 200 or 2,000 cells per well in 24 well dishes, and incubated overnight at 37° C., 5% CO2. The media from the plate containing 2,000 cells per well was removed, cells were washed once with serum free media and 1 ml of serum free media was placed on cells. The plates containing cells both in the presence and absence of serum were incubated for 6 additional days.
(§3) The cells are incubated in the presence of the compounds for 72 hours (3 days) at 37° C. […] Cycling and arrested HCT-116 cells as well as cycling IMR90 cells were exposed to a panel of 6 doses ranging from 5 to 250 nM. For arrested normal cells, the range of doses was increased to 50 nM to 25 μM, to compensate for the expected decrease in activity.
(§4) The effect of 72 hours of compound exposure on cellular viability was assessed in the Calcein AM assay. Calcein AM is a fluorescent substrate of intracellular esterases that are only active in viable cells. Cleavage of the substrate thus provides a measure of viability, which is proportional to cell number.
(§5) A Calcein AM stock solution was prepared by dissolving a 50 μg aliquot (Molecular Probes catalogue # C3100) in 50 μl DMSO. The tube was incubated at room temperature for approximately 10 minutes to ensure that the Calcein had dissolved completely. The calcein was diluted into 10 ml PBS to prepare the final solution, which was protected from light.
(§6) The media was aspirated off the cells, which were then washed twice with 1 ml PBS to remove the PBS completely from cells by aspiration. 0.5 ml of the Calcein/PBS solution was transferred by pipette into each well. The plates were incubated at 37° C. for 75 minutes (protected from light) and read on a fluorescent plate reader (excitation 485/20 and emission 530/25).

A further assay relates to arrested IMR90 cells. Description: Arrested cell assay, arrested IMR90 normal cells. It is filed as cell-based. As to conditions: Homo sapiens, IMR-90; serum-starved arrested cells, 72 hours; read-out: Arrested cell assay IMR90 IC50. On the procedure: as §2
IMR90 cells were plated in triplicate for each compound concentration to be tested in MEM-A media containing 10% fetal calf serum at a density of either 2,000 or 20,000 cells per well in 24-well dishes and incubated overnight at 37° C., 5% CO2. The media was removed from the 20,000 cell-per-well dish, cells were washed once with serum-free media, and serum-free media was placed on cells. The plates containing cells both in the presence and absence of serum were incubated for 3 additional days.
as §3, §4, §5, §6

Where [3] appears, read: HCT-116, non-protein adjusted, Table 6, read-out: HCT-116 viability IC50.
Where [4] appears, read: HCT-116, 72 h, Calcein AM, 72 hours, read-out: HCT-116 IC50 Viability.
Setting [5] is: HCT-116, plus 1 mg/ml alpha acidic glycoprotein and 45 mg/ml human serum albumin, read-out: HCT-116 IC50 Protein adjusted.

T3 sequence (P06493 whole entry, species assumed): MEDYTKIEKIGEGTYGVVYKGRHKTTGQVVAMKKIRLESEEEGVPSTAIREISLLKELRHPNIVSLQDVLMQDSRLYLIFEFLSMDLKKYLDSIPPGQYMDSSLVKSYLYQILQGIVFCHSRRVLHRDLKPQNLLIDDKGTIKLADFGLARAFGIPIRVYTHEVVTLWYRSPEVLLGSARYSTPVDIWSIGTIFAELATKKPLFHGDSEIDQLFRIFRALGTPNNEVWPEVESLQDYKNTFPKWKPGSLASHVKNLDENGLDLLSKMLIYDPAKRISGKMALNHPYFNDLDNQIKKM
T3 sequence (P14635 whole entry partner, species assumed): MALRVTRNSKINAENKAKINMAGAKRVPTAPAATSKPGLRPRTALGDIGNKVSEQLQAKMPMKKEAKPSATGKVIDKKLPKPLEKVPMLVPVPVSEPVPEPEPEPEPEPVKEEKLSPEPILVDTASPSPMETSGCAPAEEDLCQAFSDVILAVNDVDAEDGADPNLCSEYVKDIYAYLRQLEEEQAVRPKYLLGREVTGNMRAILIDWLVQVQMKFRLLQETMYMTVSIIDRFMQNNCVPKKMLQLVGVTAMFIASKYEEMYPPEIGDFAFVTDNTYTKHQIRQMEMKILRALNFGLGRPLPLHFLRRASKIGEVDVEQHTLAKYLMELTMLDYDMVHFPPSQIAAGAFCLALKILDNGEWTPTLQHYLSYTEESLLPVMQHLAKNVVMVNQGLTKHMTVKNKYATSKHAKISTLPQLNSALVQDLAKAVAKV
T2 sequence (P11802 whole entry, species assumed): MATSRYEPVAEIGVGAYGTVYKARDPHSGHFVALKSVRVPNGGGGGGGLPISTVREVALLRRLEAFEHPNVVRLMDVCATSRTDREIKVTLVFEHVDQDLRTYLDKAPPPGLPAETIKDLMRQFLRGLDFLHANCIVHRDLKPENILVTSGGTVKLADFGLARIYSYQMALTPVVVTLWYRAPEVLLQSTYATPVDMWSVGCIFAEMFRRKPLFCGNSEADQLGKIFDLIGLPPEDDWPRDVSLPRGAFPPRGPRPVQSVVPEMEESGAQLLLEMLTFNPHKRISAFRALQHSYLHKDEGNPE
T2 sequence (P24385 whole entry partner, species assumed): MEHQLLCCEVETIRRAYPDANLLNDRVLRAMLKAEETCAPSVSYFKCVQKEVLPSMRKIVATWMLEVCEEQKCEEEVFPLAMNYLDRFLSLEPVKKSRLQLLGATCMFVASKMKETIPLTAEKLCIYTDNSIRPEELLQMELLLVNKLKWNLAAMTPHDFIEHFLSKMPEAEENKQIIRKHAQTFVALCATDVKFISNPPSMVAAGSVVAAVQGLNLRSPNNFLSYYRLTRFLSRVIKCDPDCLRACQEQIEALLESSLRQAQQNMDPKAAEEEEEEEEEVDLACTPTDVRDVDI

Consider `CC(C)c1nn(-c2c(Cl)cccc2Cl)c2nc(Cc3ccc(OCC(C)(C)O)cc3)[nH]c(=O)c12` [Compound A63], for which the IC50 is below 100 nM in the assay on HCT-116 cells [1] (setting [3]), below 100 nM against Cdk2/cyclin E, below 1000 nM on Cdk4/cyclin D1 and below 100 nM against Cdc2/cyclin B.
Turning to `COCCOc1ccc(Cc2nc3c(c(C(C)C)nn3-c3c(Cl)cccc3Cl)c(=O)[nH]2)cc1` [Compound A66], the IC50 in the assay with HCT-116 cells [1] (setting [3]) is below 100 nM; on Cdk2/cyclin E, below 100 nM; on Cdk4/cyclin D1 it was below 10000 nM; against Cdc2/cyclin B, below 100 nM.
Turning to `CC(C)N1CCN(C(=O)COc2ccc(-c3[nH]nc4c3C(=O)c3c(NC(=O)NN5CCOCC5)cccc3-4)cc2)CC1` [Compound A76], the IC50 in the assay on HCT-116 cells [1] (setting [3]), against Cdk2/cyclin E, against Cdk4/cyclin D1 and against Cdc2/cyclin B was below 100 nM each time.
Take `O=C(Nc1cccc2c1C(=O)c1c-2n[nH]c1-c1ccc(OCCN2CCCC2)cc1)NN1CCOCC1` [Compound I]: the IC50 in the assay with HCT-116 cells [2] (HCT-116, 24 h) was below 10 nM; in the assay with HCT-116 cells [1] (setting [4]), below 100 nM; in the assay on arrested HCT-116 cells, below 100 nM; with arrested IMR90 cells, above 1000 nM.
On to `CN1CCN(NC(=O)Nc2cccc3c2C(=O)c2c-3n[nH]c2-c2ccc(OCCN3CCC[C@H]3CO)cc2)CC1` [Compound M], for which the IC50 with HCT-116 cells [2] (HCT-116, 48 h) is below 100 nM; with HCT-116 cells [1] (setting [4]), below 100 nM; in the assay with arrested HCT-116 cells, below 100 nM; with arrested IMR90 cells, above 1000 nM.
`CC(C)c1nn(-c2c(Cl)cc(Cl)cc2Cl)c2nc(Cc3ccc(NS(=O)(=O)CCCN4CCOCC4)cc3)[nH]c(=O)c12` [D]: the IC50 is below 100 nM in the assay with HCT-116 cells [2] (HCT-116, 48 h); below 100 nM in the assay with HCT-116 cells [2] (HCT-116, 72 h); below 10 nM in the assay with arrested HCT-116 cells; above 1000 nM in the assay with arrested IMR90 cells.
With `CN1CCN(NC(=O)Nc2cccc3c2C(=O)c2c-3n[nH]c2-c2ccc(OCCN3CCCC3)cc2)CC1` [F], the IC50 with HCT-116 cells [2] (HCT-116, 72 h) was below 1000 nM; with HCT-116 cells [1] (setting [5]) it was below 100 nM; in the assay with arrested IMR90 cells, above 1000 nM.
As to `CCCN(CCOc1ccc(-c2[nH]nc3c2C(=O)c2c(NC(=O)NN4CCOCC4)cccc2-3)cc1)CC1CC1` [G], the IC50 was below 10 nM in the assay with HCT-116 cells [2] (HCT-116, 24 h); below 100 nM in the assay with HCT-116 cells [1] (setting [4]); below 100 nM in the assay on arrested HCT-116 cells; above 100 nM in the assay with arrested IMR90 cells.
Take `O=C(Nc1cccc2c1C(=O)c1c-2n[nH]c1-c1ccc(OCCN(CCO)CCO)cc1)NN1CCOCC1` [H]: the IC50 in the assay with HCT-116 cells [2] (HCT-116, 48 h) is below 1000 nM; with HCT-116 cells [1] (setting [5]) it was below 1000 nM; with arrested HCT-116 cells, below 100 nM; with arrested IMR90 cells, above 1000 nM.
`CC(C)N1CCN(Cc2cc(-c3[nH]nc4c3C(=O)c3c(NC(=O)NN5CCOCC5)cccc3-4)ccc2O)CC1` [K]: the IC50 in the assay on HCT-116 cells [2] (HCT-116, 24 h) is below 100 nM; in the assay on HCT-116 cells [2] (HCT-116, 48 h), below 100 nM; in the assay with HCT-116 cells [1] (setting [4]), below 100 nM; with arrested HCT-116 cells, below 10 nM; in the assay on arrested IMR90 cells, above 1000 nM.
Take `Cc1cc(OCCN2CCCC2)ccc1-c1[nH]nc2c1C(=O)c1c(NC(=O)NN3CCN(C)CC3)cccc1-2` [L]: the IC50 in the assay on HCT-116 cells [2] (HCT-116, 24 h) is below 100 nM; in the assay on HCT-116 cells [1] (setting [4]), below 100 nM.
Take `CN1CCN(NC(=O)Nc2cccc3c2C(=O)c2c-3n[nH]c2-c2ccc(OCCN3CC[C@H](O)C3)cc2)CC1` [O]: the IC50 with HCT-116 cells [2] (HCT-116, 24 h) was below 100 nM; in the assay on HCT-116 cells [1] (setting [5]), below 1000 nM; in the assay with arrested HCT-116 cells it was below 100 nM; with arrested IMR90 cells, above 100 nM.
With `CN1CCN(NC(=O)Nc2cccc3c2C(=O)c2c-3n[nH]c2-c2ccc(OCCN3CCOCC3)cc2)CC1` [Q], the IC50 in the assay on HCT-116 cells [2] (HCT-116, 48 h) was below 100 nM; with arrested HCT-116 cells it was below 100 nM; with arrested IMR90 cells, above 100 nM.

The record behind these values is US7605175B2, “Inhibitors of cyclin-dependent kinases, compositions and uses related thereto” (GPC Biotech AG, priority 2001, dated 2009).
